Assay: Inhibition of beta3 Tubulin (unknown origin) expressed in human HeLa cell line assessed as inhibition of cell proliferation measured after 48 hrs by SRB method

Row | Compound | IC50
1 | COc1ccc(N(C)c2nc(C)nc3c2CCC3)cc1 | 9.6 nM
2 | COc1ccc(N(C)c2nc(C)nc3c2CCC3)c2ccccc12 | 180 nM
3 | COc1cccc2cc(N(C)c3ncnc4c3CCC4)ccc12 | 43 nM
4 | COc1cccc2cc(N(C)c3nc(N)nc4c3CCC4)ccc12 | 9.6 nM

Reference: BindingDB's records for doi:10.1016/j.bmc.2020.115887 (Duquesne University, 2021)
